What was measured:
hMCH-1R = molecular target: T1, hMCH-1R (Homo sapiens, UniProt Q99705); assay: MCH-1 receptor binding test; conditions: 125I-MCH binding, membranes of CHO/Galpha16 cells stably transfected with hMCH-1R
T1 construct: expressed in transfected cells; host or cells: CHO/Galpha16 cells (membrane preparation)
Method: 200 μL of this membrane fraction (contains 1 to 3 μg of protein) are incubated for 60 minutes at ambient temperature with 100 pM of ^125I-tyrosyl melanin concentrating hormone (^125I-MCH commercially obtainable from NEN) and increasing concentrations of the test compound in a final volume of 250 μL. After the incubation the reaction is filtered using a cell harvester through 0.5% PEI treated fiberglass filters (GF/B, Unifilter Packard). The membrane-bound radioactivity retained on the filter is then determined after the addition of scintillator substance (Packard Microscint 20) in a measuring device (TopCount of Packard). […] The analysis of the concentration binding curve is carried out on the assumption of one receptor binding site.

rats = conditions: cited from earlier work
[1] = long term trials; cited from earlier work

T1 sequence (Q99705 whole entry): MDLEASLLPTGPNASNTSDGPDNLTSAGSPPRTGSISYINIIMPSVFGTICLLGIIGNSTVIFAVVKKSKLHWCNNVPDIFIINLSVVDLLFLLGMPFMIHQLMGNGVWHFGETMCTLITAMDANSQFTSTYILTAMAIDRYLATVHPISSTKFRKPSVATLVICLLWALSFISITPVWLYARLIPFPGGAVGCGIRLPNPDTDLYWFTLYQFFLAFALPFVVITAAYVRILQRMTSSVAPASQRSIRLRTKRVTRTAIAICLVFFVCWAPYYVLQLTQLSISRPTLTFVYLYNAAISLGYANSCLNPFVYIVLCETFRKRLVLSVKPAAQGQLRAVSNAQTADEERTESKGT

OC[C@@H]1CCCN1CC1CCc2cc(C#Cc3ccc(-c4ccc(Cl)cc4)cn3)ccc2O1 (stereo partly shown) [Example 1.1]
IC50 (hMCH-1R): 6 nM

CC1CCN(Cc2cc(=O)c3cc(C#Cc4ccc(-c5ccc(Cl)cc5)cn4)ccc3o2)CC1 [Example 2.1, 6-[5-(4-chlorophenyl)pyridin-2-ylethynyl]-2-(4-methylpiperidin-1-ylmethyl)-1-benzopyran-4-one]
IC50 (hMCH-1R): 3 nM

COCC1=C(C(=O)OC)[C@H](c2ccc(F)c(F)c2)N(C(=O)NCCCN2CCC(c3cccc(NC(C)=O)c3)CC2)C(=O)N1 [SNAP-7941]
effects in behavioral experiments (rats): anxiolytic and antidepressant effects | body weight change [1]: lose significant amounts of weight
